# Key:
# [1] = system: K562 leukemia cells; assay: NCI SRB antiproliferative assay, K562; format: cell-based; settings: Homo sapiens; for inhibition at 10 µM: read-out: % Growth inhibition at 10 µM K562; for GI50: five-dose testing
# Experimental: (§1) Six members, 3a, 3g–j, and 3q, out of the investigated compounds were further evaluated for their antiproliferative effects against human cancer cell lines, including leukemia (K562), colon cancer (HCT116), non-small cell lung (NSCL) cancer (A549, NCI-H23 and NCI-H460), and breast cancer (MCF-7 and T47D) cells. The tested cell lines’ choice depended on their elevated DDR1 expression levels. The cell lines were all treated with a 10 µM concentration of the tested compounds, and the results were expressed as the percentage of growth inhibition (%GI) (Table 4).
# (§2) Inhibition of the tumor relevant carbonic anhydrases IX and XII may be one of these additional mechanisms.
# (§3) The evaluation of the antiproliferative activities of compounds 3a, 3g–j, and 3q over a panel of DDR1-dependent cell lines was conducted employing the sensitive Sulforhodamine B (SRB) assay at the National Cancer Institute (NCI), Bethesda, Maryland, USA, following the standard protocol.
# [2] = system: HCT116 colon cancer cells; assay: NCI SRB antiproliferative assay, HCT116; format: cell-based; settings: Homo sapiens, HCT-116; for inhibition at 10 µM: read-out: % Growth inhibition at 10 µM HCT116; for GI50: five-dose testing
# Experimental: as §1, §2, §3
# [3] = system: A549 non-small cell lung cancer cells; assay: NCI SRB antiproliferative assay, A549; format: cell-based; settings: Homo sapiens; for inhibition at 10 µM: read-out: % Growth inhibition at 10 µM A549; for GI50: five-dose testing
# Experimental: as §1, §2, §3
# [4] = system: NCI-H23 non-small cell lung cancer cells; assay: NCI SRB antiproliferative assay, NCI-H23; format: cell-based; settings: Homo sapiens; for inhibition at 10 µM: read-out: % Growth inhibition at 10 µM NCI-H23; for GI50: five-dose testing
# Experimental: as §1, §2, §3
# [5] = system: NCI-H460 non-small cell lung cancer cells; assay: NCI SRB antiproliferative assay, NCI-H460; format: cell-based; settings: Homo sapiens; for inhibition at 10 µM: read-out: % Growth inhibition at 10 µM NCI-H460; for GI50: five-dose testing
# Experimental: as §1, §2, §3
# [6] = system: MCF-7 breast cancer cells; assay: NCI SRB antiproliferative assay, MCF-7; format: cell-based; settings: Homo sapiens, MCF7; for inhibition at 10 µM: read-out: % Growth inhibition at 10 µM MCF-7; for GI50: five-dose testing
# Experimental: as §1, §2, §3
# [7] = system: T47D breast cancer cells; assay: NCI SRB antiproliferative assay, T47D; format: cell-based; settings: Homo sapiens; for inhibition at 10 µM: read-out: % Growth inhibition at 10 µM T47D; for GI50: five-dose testing
# Experimental: as §1, §2, §3
# [8] = molecular target: DDR1 (Homo sapiens, UniProt Q08345); assay: RBC radiometric HotSpot kinase assay, DDR1; settings: for SI: Selectivity index (IC50 DDR2/IC50 DDR1): DDR1 over DDR2; for inhibition at 10 µM: read-out: % Inhibition at 10 μM (SEM) DDR1
# Sequence of DDR1 (Q08345 19-913): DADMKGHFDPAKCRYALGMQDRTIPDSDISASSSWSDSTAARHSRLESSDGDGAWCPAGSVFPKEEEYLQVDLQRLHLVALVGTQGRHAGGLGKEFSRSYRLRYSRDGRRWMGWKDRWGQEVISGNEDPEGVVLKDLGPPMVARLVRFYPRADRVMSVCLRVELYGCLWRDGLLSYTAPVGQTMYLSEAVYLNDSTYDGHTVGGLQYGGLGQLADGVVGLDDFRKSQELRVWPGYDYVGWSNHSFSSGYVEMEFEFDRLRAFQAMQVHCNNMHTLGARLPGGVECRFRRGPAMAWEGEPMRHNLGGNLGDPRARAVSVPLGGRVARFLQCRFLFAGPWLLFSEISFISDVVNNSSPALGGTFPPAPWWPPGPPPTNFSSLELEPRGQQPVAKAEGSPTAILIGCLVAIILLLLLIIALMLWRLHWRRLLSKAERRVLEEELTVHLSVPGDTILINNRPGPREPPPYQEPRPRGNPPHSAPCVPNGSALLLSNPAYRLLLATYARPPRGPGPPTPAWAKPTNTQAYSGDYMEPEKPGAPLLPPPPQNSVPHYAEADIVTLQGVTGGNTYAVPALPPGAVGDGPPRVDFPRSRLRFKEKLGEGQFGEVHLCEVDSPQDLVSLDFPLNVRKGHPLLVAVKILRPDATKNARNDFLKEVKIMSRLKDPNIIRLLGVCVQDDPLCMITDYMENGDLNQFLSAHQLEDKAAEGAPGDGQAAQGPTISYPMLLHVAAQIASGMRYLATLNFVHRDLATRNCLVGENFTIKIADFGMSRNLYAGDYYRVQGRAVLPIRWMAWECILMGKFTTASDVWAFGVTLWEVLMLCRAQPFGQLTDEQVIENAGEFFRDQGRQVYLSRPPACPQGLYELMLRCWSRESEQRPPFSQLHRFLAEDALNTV
# Experimental: (§4) All compounds in this study were tested against DDR1 and DDR2 at a 10 µM dose at Reaction Biology Corporation (RBC, Malvern, PA, USA) employing the radiometric HotSpot Kinase assay protocol (Table 1).
# [9] = molecular target: T1, DDR2 (Homo sapiens, UniProt Q16832); assay: RBC radiometric HotSpot kinase assay, DDR2; settings: for inhibition at 10 µM: read-out: % Inhibition at 10 μM (SEM) DDR2
# T1 sequence (Q16832 22-855): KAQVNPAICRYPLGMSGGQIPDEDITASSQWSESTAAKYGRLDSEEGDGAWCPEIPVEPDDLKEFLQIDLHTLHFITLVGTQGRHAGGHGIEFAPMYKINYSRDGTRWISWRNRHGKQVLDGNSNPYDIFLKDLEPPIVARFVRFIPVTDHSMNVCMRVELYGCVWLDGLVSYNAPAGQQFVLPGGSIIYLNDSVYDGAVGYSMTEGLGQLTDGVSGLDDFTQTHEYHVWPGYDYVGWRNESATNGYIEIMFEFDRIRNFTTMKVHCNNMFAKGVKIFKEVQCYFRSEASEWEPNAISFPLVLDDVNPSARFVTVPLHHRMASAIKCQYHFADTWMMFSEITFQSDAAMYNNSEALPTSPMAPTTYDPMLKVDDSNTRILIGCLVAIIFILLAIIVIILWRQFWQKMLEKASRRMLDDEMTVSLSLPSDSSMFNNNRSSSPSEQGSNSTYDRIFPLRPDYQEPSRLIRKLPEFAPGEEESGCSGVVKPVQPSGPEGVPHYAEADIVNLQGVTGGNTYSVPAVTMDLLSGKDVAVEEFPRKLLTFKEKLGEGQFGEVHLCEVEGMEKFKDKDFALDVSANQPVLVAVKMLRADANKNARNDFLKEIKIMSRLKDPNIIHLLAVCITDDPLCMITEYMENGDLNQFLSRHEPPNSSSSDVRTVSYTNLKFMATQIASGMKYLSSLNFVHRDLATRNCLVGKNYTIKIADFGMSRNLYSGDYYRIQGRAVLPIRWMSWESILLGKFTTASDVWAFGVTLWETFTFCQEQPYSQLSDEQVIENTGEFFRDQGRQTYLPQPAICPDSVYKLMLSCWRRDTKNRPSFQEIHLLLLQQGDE
# Experimental: as §4
# [10] = system: DDR1-dependent cancer cell lines; assay: NCI SRB antiproliferative assay, whole panel of DDR1-dependent cell lines; format: cell-based, human; settings: span over the seven cell lines
# Experimental: as §1, §2, §3
IC50 [8] [nM],SI: Selectivity index (IC50 DDR2/IC50 DDR1) [8],inhibition at 10 µM [8] [%],IC50 [9] [nM],inhibition at 10 µM [9] [%],SMILES,inhibition at 10 µM [1] [%],inhibition at 10 µM [2] [%],inhibition at 10 µM [3] [%],inhibition at 10 µM [4] [%],inhibition at 10 µM [5] [%],inhibition at 10 µM [6] [%],inhibition at 10 µM [7] [%],further results
–,–,15.4,–,3.07,CCCCc1ccc(NC(=O)Nc2ccc3oc(=O)ccc3c2)cc1 [Compound 3e],–,–,–,–,–,–,–,–
–,–,10.6,–,5.52,CCCCOc1ccc(NC(=O)Nc2ccc3oc(=O)ccc3c2)cc1 [Compound 3f],–,–,–,–,–,–,–,–
2900,>3.4,49,> 10000,39.3,O=C(Nc1ccc(Cl)c(C(F)(F)F)c1)Nc1ccc2oc(=O)ccc2c1 [Compound 3g],80.8,84.3,60.1,95.2,81.9,88.1,91.3,–
1660,>6.0,57.2,> 10000,27.5,O=C(Nc1ccc(F)c(Cl)c1)Nc1ccc2oc(=O)ccc2c1 [Compound 3h],32.2,14.1,15.1,14.3,20.6,25.4,24.6,%GI over all tested cell lines ([10]; 10 µM): < 35%
2520,>4.0,48.5,> 10000,23.3,O=C(Nc1cc(Cl)cc(Cl)c1)Nc1ccc2oc(=O)ccc2c1 [Compound 3j],84.6,98.6,83.8,106,98.8,94.5,96.5,"GI50 [1]: 2340 nM; GI50 [2]: 2310 nM; GI50 [3]: 2900 nM; GI50 [4]: 2670 nM; GI50 [5]: 2270 nM; GI50 [6]: 2280 nM; GI50 [7]: 1930 nM; GI50 ([10]; Homo sapiens, read-out: GI50 over all tested cell lines): 1930 to 2900 nM"
–,–,33.8,–,17.3,Cc1cc(C)cc(NC(=O)Nc2ccc3oc(=O)ccc3c2)c1 [Compound 3k],–,–,–,–,–,–,–,–
–,–,19,–,17.1,O=C(Nc1ccc2oc(=O)ccc2c1)Nc1ccc(Cl)cc1Cl [Compound 3l],–,–,–,–,–,–,–,–

# The remaining lines, values behind:
SMILES,IC50 [8] [nM],SI: Selectivity index (IC50 DDR2/IC50 DDR1) [8],inhibition at 10 µM [8] [%],IC50 [9] [nM],inhibition at 10 µM [9] [%],inhibition at 10 µM [1] [%],inhibition at 10 µM [2] [%],inhibition at 10 µM [3] [%],inhibition at 10 µM [4] [%],inhibition at 10 µM [5] [%],inhibition at 10 µM [6] [%],inhibition at 10 µM [7] [%],further results
O=C(Nc1cccc(C(F)(F)F)c1)Nc1ccc2oc(=O)ccc2c1 [Compound 3a],321,7.5,92.7,2390,83.6,33.2,20.9,10.4,13.2,15.8,29.2,24.6,–
O=C(Nc1ccc(C(F)(F)F)cc1)Nc1ccc2oc(=O)ccc2c1 [Compound 3b],–,–,24.5,–,11.7,–,–,–,–,–,–,–,–
O=C(Nc1ccc(F)cc1)Nc1ccc2oc(=O)ccc2c1 [Compound 3c],–,–,25.6,–,15.9,–,–,–,–,–,–,–,–
O=C(Nc1ccc(Br)cc1)Nc1ccc2oc(=O)ccc2c1 [Compound 3d],–,–,23.1,–,7.53,–,–,–,–,–,–,–,–
O=C(Nc1cc(C(F)(F)F)cc(C(F)(F)F)c1)Nc1ccc2oc(=O)ccc2c1 [Compound 3i],1530,12.4,77.1,19000,67.3,86.3,97.9,84.8,100,93.6,96.2,95.2,GI50 [1]: 550 nM; GI50 [2]: 732 nM; GI50 [3]: 1590 nM; GI50 [4]: 940 nM; GI50 [5]: 690 nM; GI50 [6]: 1940 nM; GI50 [7]: 1340 nM

# — paper PMC11054573, “Identification of Ureidocoumarin-Based Selective Discoidin Domain Receptor 1 (DDR1) Inhibitors via Drug Repurposing Approach, Biological Evaluation, and In Silico Studies” (Pharmaceuticals, 2024)
